PubChem BioAssay (NCI)
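All cell lines were grown in 96-well plates and treated with compound for 48 hours. Here, GI50 denotes the concentration required for 50% inhibition of growth. TGI marks complete inhibition of growth.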

What was measured:
Experiment in all cases: NCI tumour cell line growth inhibition, 48 h
SK-MEL-2 melanoma = system: SK-MEL-2 melanoma
UACC-62 melanoma = system: UACC-62 melanoma
U251 CNS = system: U251 CNS
RPMI-8226 leukemia = system: RPMI-8226 leukemia
CAKI-1 renal = system: CAKI-1 renal
COLO 205 colon = system: COLO 205 colon
SF-268 CNS = system: SF-268 CNS
A549 NSCLC = system: A549 NSCLC
HT29 colon = system: HT29 colon
SR leukemia = system: SR leukemia

Structure (SMILES)	GI50 (SK-MEL-2 melanoma) [µM]	TGI (SK-MEL-2 melanoma) [µM]	GI50 (UACC-62 melanoma) [µM]	TGI (UACC-62 melanoma) [µM]	GI50 (U251 CNS) [µM]	TGI (U251 CNS) [µM]	GI50 (RPMI-8226 leukemia) [µM]	TGI (RPMI-8226 leukemia) [µM]	GI50 (CAKI-1 renal) [µM]	TGI (CAKI-1 renal) [µM]	GI50 (COLO 205 colon) [µM]	TGI (COLO 205 colon) [µM]	GI50 (SF-268 CNS) [µM]	TGI (SF-268 CNS) [µM]	GI50 (A549 NSCLC) [µM]	TGI (A549 NSCLC) [µM]	GI50 (HT29 colon) [µM]	TGI (HT29 colon) [µM]	GI50 (SR leukemia) [µM]	TGI (SR leukemia) [µM]
CN(C)c1ccc2c(c1)OC(N)=C(C#N)C2c1ccc2c(c1)CCCN2C (stereo not given)	1.68	28.6	1.55	33.9	2.6	21.9	4.07	31	3.33	> 100	2.44	6.51	6.85	> 100	2.03	> 100	2.62	8.23	0.648	16.6
CCOC(=O)C1=C(C)N(Cc2ccc(Cl)cc2Cl)[C@]2(C#N)C(O)=C(Cl)C(Cl)=C(O)[C@]12C#N	> 100	> 100			44.8	> 100	21.2	47.3	> 100	> 100	> 100	> 100	42.1	> 100	> 100	> 100	> 100	> 100	16	38.9
CCOC(=O)c1cc2cc(OCc3ccccc3)ccc2[nH]1	> 100	> 100	> 100	> 100	> 100	> 100	> 100	> 100	> 100	> 100	> 100	> 100	> 100	> 100	> 100	> 100	> 100	> 100	> 100	> 100
CCc1ccc(C2=NN(c3ccc(S(C)(=O)=O)cc3)C(=O)CC2)cc1	1.24	98.4	0.603	> 100	1.83	> 100	3.97	> 57.6	1.65	> 28.7	1.05	7.75	3.11	> 100	0.913	> 100	0.411	13.4	0.42	21.7
O=CC(O)C(O)C(OC1OC(CO)C(O)C(O)C1O)C(O)CO (stereo not given) (tested in a mixture with another compound)		> 100		> 100		> 100		59.2		> 100		> 100		> 100		> 100		> 100		33.1
CC1(C)N=C(N)N=C(N)N1c1ccc(OCCCCNC(=O)Nc2cccc(S(=O)(=O)F)c2)c(Cl)c1	13.6	> 100	0.491	> 100	0.674	> 100	3	93.3	35.4	> 100	3.78	> 100	0.649	> 100	2.27	> 100	0.611	> 100	1.02	> 100
Nc1nc(-c2ccccc2)cc(-c2cc(Cl)ccc2O)n1				> 100		> 100		> 100		> 100		> 100		> 100		> 100		> 100		> 100
O=C(O)Cn1ccc(=O)c2c([N+](=O)[O-])cccc21		> 100		> 100		> 100				> 100		> 100		> 100		> 100		> 100		> 100
O=C(Nc1ccc(Br)cc1)Nc1cccc(Br)c1	5.7	> 100							> 100	> 100	4.1	> 100	> 100	> 100					11.6	> 100
Nc1c(C(=O)Nc2ccccc2O)[n+]([O-])c2ccccc2[n+]1[O-]		> 100				> 100		> 100		> 100		> 100				> 100		> 100		> 100
Cn1cc(NC(=O)c2cc(NC(=O)CCCCCCCC(=O)Nc3cc(C(=O)Nc4cc(C(=O)NCCC(=N)N)n(C)c4)n(C)c3)cn2C)cc1C(=O)NCCC(=N)N		27.9		36.8		44.6				47.5		26		45.9		36.8		> 100		92.7
Cc1c(C)c2ccc(OC(C)C(=O)O)cc2oc1=O (stereo not given)				> 100		> 100		> 100		> 100		> 100		> 100		> 100		> 100		> 100
Cc1ccc(-c2nc(C(Cl)Cl)nc3cc(C)nn23)cc1	> 100	> 100	3.12	> 100			5.02	> 100	1.59	5.42	1.04	3.41	2.69	> 100	1.33	6.21	0.458	> 100	0.342	> 100
Cc1n(Cc2ccc3ccccc3n2)cc[n+]1Cc1ccc2ccccc2c1	0.522	2.99	0.933	3.61	0.384	12.2	0.376	6.63			0.302	1.1	0.784	14	1.34	13.4	0.454	9.61	0.565	3.24
CC1(C)CC(O)CC(C)(C)N1.CC1(C)CC(O)CC(C)(C)N1.CC1(C)CC(O)CC(C)(C)N1.CC1(C)CC(O)CC(C)(C)N1.Cl.[Ti]	> 100	> 100	> 100	> 100	> 100	> 100	> 100	> 100	> 100	> 100	> 100	> 100	> 100	> 100			> 100	> 100	> 100	> 100
CCOc1ccc(/C=C2/C(=O)N=C(N)N=C2N)cc1OCC		> 100		> 100		> 100		> 100		> 100		> 100				> 100		> 100		> 100
